In patent US20090291088A1, “THERAPEUTIC COMBINATIONS OF ANTI-IGF-1R ANTIBODIES AND OTHER COMPOUNDS” (Biogen Idec MA Inc., priority 2008, published 2009):

Tests used:
[1] = system: NSCLC, pancreatic, and colon cancer cell lines; test: Cell viability, M13-C06 and PD0325901 alone or combined; assay type: cell-based; conditions: PD0325901 single agent
Procedure: Cells were plated at 5000 cells/well in 96-well tissue culture plates in RPMI-1640 containing 10% fetal bovine serum, then treated with M13-C06 and PD0325901 as single agents or in combination at 1:3 serial dilutions with a starting concentration of 200 nM for M13-C06 and 10 microM for PD0325901. Cell viability was determined three or five days later by measuring ATP levels with CELL TITER GLO™ reagent from Promega.

[2] = system: IGF-1R; test: Biacore analysis of the IGF-1R-Fc mutant library: M13-C06 Fab binding to receptor-Fc captured on M13-C06 chip; set-up: species or system human; conditions: for Biacore Relative RUmax: M13-C06 Fab binding to mutant hIGF-1R-Fc captured on M13-C06 chip
From the text: Both mIGF-1R-Fc and hIGF-1R-Fc bind with high apparent affinity to the M13-C06, M14-C03, and M14-G11 sensorchip surfaces described above due to their highly multivalent nature induced by the incorporation of two separate homodimeric regions (IGF-1R and IgG1-Fc). To distinguish between the actual high affinity binding hIGF-1R-Fc to M13-C06 and the low affinity binding of mIGF-1R-Fc to M13-C06, the receptor-Fc fusions were captured on the M13-C06 sensorchip surface followed by an additional soluble M13-C06 Fab binding event. […] After, completion of the receptor-Fc loading step, flow rates were elevated to 5 μl/min. 10 nM, […], and 1 nM M13-C06 Fab concentrations were injected (50 μL) subsequent to the loading of each receptor-Fc construct. At the end of each sensorgram, the flow rate was elevated to 30 μl/min and the chip surface was regenerated by 2×10 μL injections of 0.1 M glycine, pH 2.

[3] = system: IGF-1R-Fc; test: Surface plasmon resonance analysis of the IGF-1R-Fc mutant library (46 mutants); assay type: binding, human; conditions: for C06 binding: M13-C06 Fab; for C06 binding / C03 binding / G11 binding / P1E2 binding / αIR3 binding: KD relative to WT hIGF-1R-Fc; for C03 binding: M14-C03 Fab; for G11 binding: M14-G11 Fab; for P1E2 binding: P1E2 antibody; for αIR3 binding: αIR3 antibody; for loss in affinity for M14-G11 Fab based on the measured KD: mutant versus wild-type
Procedure: Surface plasmon resonance (SPR) experiments were performed on a Biacore 3000 instrument set to 25° C. Both mIGF-1R-Fc and hIGF-1R-Fc bind with high apparent affinity to research grade CM5 sensorchip surfaces containing immobilized M13-C06, M14-C03, and M14-G11. The antibody sensorchip surfaces were prepared by injecting each antibody (diluted 100 μg/mL in 10 mM Acetate, pH 4.0) over EDC/NHS-activated sensorchip surfaces according to the standard protocol of the manufacturer. The ability of mIGF-1R-Fc to bind the antibody surfaces was the result of high apparent avidity of the protein. Both hIGF-1R-Fc and mIGF-1R-Fc proteins oligomerize due to the incorporation of two separate homodimeric regions (IGF-1R and IgG1-Fc). To distinguish between actual high affinity antibody binding to hIGF-1R-Fc and low affinity antibody binding to mIGF-1R-Fc, the receptor-Fc fusions were captured on the M13-C06 and M14-G11 sensorchip surfaces followed by an additional injection of antibody (αIR3 and P1E2) or antibody Fab (M13-C06, M14-C03, and M14-G11). […] After, completion of the receptor-Fc loading step, flow rates were elevated to 5 μl/min. Solutions containing M13-C06 Fab or αIR3 antibody at 10 nM, 3 nM, or 1 nM or M14-C03 Fab, M14-G11 Fab, or P1E2 antibody at 30 nM, 10 nM, or 3 nM were injected (50 μL) subsequent to the loading of each receptor-Fc construct. Dissociation was measured for 7 minutes after the antibody injections were complete. Finally, the flow rate was elevated to 30 μL/min and the chip surfaces were regenerated by 2×10 μL injections of 0.1 M glycine, pH 2.
M13-C06, M14-C03, M14-G11, P1E2 and αIR3 were assayed for their ability to interact with each of the mutant IGF-1R-Fc fusion constructs using surface plasmon resonance (Biacore). To remove the uncertain concentrations of the IGF-1R-Fc fusion constructs as a variable in the assay, each mutant construct was captured on a research grade CM5 chip containing ˜10,000 RU immobilized […], M14-C03, and M14-G11 antibody. To enhance our ability to visualize attenuations in antibody binding to the captured mutant IGF-1R constructs, we utilized enzymatically derived M13-C06, M14-C03, and M14-G11 antigen binding fragments (Fabs).

Compound | cell growth ([1]; 7 NSCLC cell lines) | cell growth ([1]; BxPC3 and Panc-1) | cell growth ([1]; H460 and H1650) | cell growth ([1]; MiaPaCa2 and Su86.86) | Biacore Relative RUmax [2] | C06 binding [3] | C03 binding [3] | G11 binding [3] | P1E2 binding [3] | αIR3 binding [3] | loss in affinity for M14-G11 Fab based on the measured KD [3] | binding activity toward M13-C06 ([2]; SPR and tr-FRET, both assays) | effect of mutation on M13-C06 and M14-C03 Fab binding [3]
O=C(NOC[C@H](O)CO)c1ccc(F)c(F)c1Nc1ccc(I)cc1F [PD0325901, (R)—N-(2,3-dihydroxypropoxy)-3,4-difluoro-2-(2-fluoro-4-iodophenylamino)benzamide, reference compound] | five of them were sensitive to PD0325901 inhibition | intermediate response | showed less response | sensitive to PD0325901 as a single agent |  |  |  |  |  |  |  |  | 
SD006: hIGF-1R-Fc mutant A227K |  |  |  |  | 1.7 | NE (No effect (NE): measured KD within 2.5-fold of WT hIGF-1R-Fc) | NE (No effect (NE): measured KD within 2.5-fold of WT hIGF-1R-Fc) | NE (No effect (NE): measured KD within 2.5-fold of WT hIGF-1R-Fc) | NE (No effect (NE): measured KD within 2.5-fold of WT hIGF-1R-Fc) | NE (No effect (NE): measured KD within 2.5-fold of WT hIGF-1R-Fc) |  |  | 
SD007: hIGF-1R-Fc mutant N237G |  |  |  |  | 1.3 | NE (No effect (NE): measured KD within 2.5-fold of WT hIGF-1R-Fc) | NE (No effect (NE): measured KD within 2.5-fold of WT hIGF-1R-Fc) | NE (No effect (NE): measured KD within 2.5-fold of WT hIGF-1R-Fc) | NE (No effect (NE): measured KD within 2.5-fold of WT hIGF-1R-Fc) | NE (No effect (NE): measured KD within 2.5-fold of WT hIGF-1R-Fc) |  |  | 
SD008: hIGF-1R-Fc mutant S257F (Table 20), S258F (Table 17) |  |  |  |  | 1.5 | NE (No effect (NE): measured KD within 2.5-fold of WT hIGF-1R-Fc) | NE (No effect (NE): measured KD within 2.5-fold of WT hIGF-1R-Fc) | W (Weak (W): measured KD between 2.5-10-fold higher than WT) | W (Weak (W): measured KD between 2.5-10-fold higher than WT) | NE (No effect (NE): measured KD within 2.5-fold of WT hIGF-1R-Fc) | approximately 3 fold |  | 
SD009: hIGF-1R-Fc mutant E264K |  |  |  |  | 0.6 | NE (No effect (NE): measured KD within 2.5-fold of WT hIGF-1R-Fc) | NE (No effect (NE): measured KD within 2.5-fold of WT hIGF-1R-Fc) | NE (No effect (NE): measured KD within 2.5-fold of WT hIGF-1R-Fc) | NE (No effect (NE): measured KD within 2.5-fold of WT hIGF-1R-Fc) | NE (No effect (NE): measured KD within 2.5-fold of WT hIGF-1R-Fc) |  |  | 
SD010: hIGF-1R-Fc mutant G271D |  |  |  |  | 0.8 | NE (No effect (NE): measured KD within 2.5-fold of WT hIGF-1R-Fc) | NE (No effect (NE): measured KD within 2.5-fold of WT hIGF-1R-Fc) | NE (No effect (NE): measured KD within 2.5-fold of WT hIGF-1R-Fc) | NE (No effect (NE): measured KD within 2.5-fold of WT hIGF-1R-Fc) | NE (No effect (NE): measured KD within 2.5-fold of WT hIGF-1R-Fc) |  |  | 
SD011: hIGF-1R-Fc mutant G285S_S286T |  |  |  |  | 1.8 | NE (No effect (NE): measured KD within 2.5-fold of WT hIGF-1R-Fc) | NE (No effect (NE): measured KD within 2.5-fold of WT hIGF-1R-Fc) | NE (No effect (NE): measured KD within 2.5-fold of WT hIGF-1R-Fc) | NE (No effect (NE): measured KD within 2.5-fold of WT hIGF-1R-Fc) | NE (No effect (NE): measured KD within 2.5-fold of WT hIGF-1R-Fc) |  |  | 
SD012: hIGF-1R-Fc mutant E303G |  |  |  |  | 0.3 | NE (No effect (NE): measured KD within 2.5-fold of WT hIGF-1R-Fc) | NE (No effect (NE): measured KD within 2.5-fold of WT hIGF-1R-Fc) | W (Weak (W): measured KD between 2.5-10-fold higher than WT) | W (Weak (W): measured KD between 2.5-10-fold higher than WT) | W (Weak (W): measured KD between 2.5-10-fold higher than WT) | approximately 3 fold |  | 
SD013: hIGF-1R-Fc mutant D405K |  |  |  |  | 0.7 | NE (No effect (NE): measured KD within 2.5-fold of WT hIGF-1R-Fc) | NE (No effect (NE): measured KD within 2.5-fold of WT hIGF-1R-Fc) | NE (No effect (NE): measured KD within 2.5-fold of WT hIGF-1R-Fc) |  |  |  |  | 
SD014: hIGF-1R-Fc mutant K412A_A413Q |  |  |  |  | 0.6 | NE (No effect (NE): measured KD within 2.5-fold of WT hIGF-1R-Fc) | NE (No effect (NE): measured KD within 2.5-fold of WT hIGF-1R-Fc) | NE (No effect (NE): measured KD within 2.5-fold of WT hIGF-1R-Fc) | NE (No effect (NE): measured KD within 2.5-fold of WT hIGF-1R-Fc) | NE (No effect (NE): measured KD within 2.5-fold of WT hIGF-1R-Fc) |  |  | 
SD015: hIGF-1R-Fc mutant H464E (Table 20), E464H |  |  |  |  |  | S (Strong (S): binding to antibody was ablated by mutation) | S (Strong (S): binding to antibody was ablated by mutation) | NE (No effect (NE): measured KD within 2.5-fold of WT hIGF-1R-Fc) |  |  |  | virtually no binding activity | complete ablation of the binding reaction
SD016: hIGF-1R-Fc mutant D531Q_V532N |  |  |  |  | 2.0 | NE (No effect (NE): measured KD within 2.5-fold of WT hIGF-1R-Fc) | NE (No effect (NE): measured KD within 2.5-fold of WT hIGF-1R-Fc) | NE (No effect (NE): measured KD within 2.5-fold of WT hIGF-1R-Fc) |  |  |  |  | 
SD017: hIGF-1R-Fc mutant I650S |  |  |  |  | 2.0 | NE (No effect (NE): measured KD within 2.5-fold of WT hIGF-1R-Fc) | NE (No effect (NE): measured KD within 2.5-fold of WT hIGF-1R-Fc) | NE (No effect (NE): measured KD within 2.5-fold of WT hIGF-1R-Fc) |  |  |  |  | 
SD018: hIGF-1R-Fc mutant E665A |  |  |  |  | 1.7 | NE (No effect (NE): measured KD within 2.5-fold of WT hIGF-1R-Fc) | NE (No effect (NE): measured KD within 2.5-fold of WT hIGF-1R-Fc) | NE (No effect (NE): measured KD within 2.5-fold of WT hIGF-1R-Fc) |  |  |  |  | 
SD019: hIGF-1R-Fc mutant E739W L741F (Table 20), A739W_I741F (Table 17) |  |  |  |  | 1.9 | NE (No effect (NE): measured KD within 2.5-fold of WT hIGF-1R-Fc) | NE (No effect (NE): measured KD within 2.5-fold of WT hIGF-1R-Fc) | NE (No effect (NE): measured KD within 2.5-fold of WT hIGF-1R-Fc) |  |  |  |  | 
